Results as given in patent US8765746B2 (Millennium Pharmaceuticals, Inc., priority 2010, dated 2014).
pIC50: −log10 of the molar value.

Assays:
[1] = target: T1, PI3Kbeta (Homo sapiens, UniProt P42338); experiment: Human PI3K beta enzyme assay (HTRF, as for PI3K alpha); type: biochemical; details: for PI3Kbeta % inh / inhibition at 1.11 µM: at 1.11 μM; for inhibition at 1.11 µM: read-out: PI3Kbeta % inh
T1 construct: His (N); host or cells: SF9 insect cells (baculovirus)
Source text: (§1) The catalytic subunits of PI3Ks are cloned into either pDEST8(p110 alpha) or pDEST10(p110beta, p110delta, and p110gamma) as N-terminal His tagged fusion proteins using the Gateway system (Invitrogen, catalog#11804-010 for pDEST8 and 11806-015 for pDEST10). The sequences are verified before recombinant protein expression using the Baculovirus Expression System with Gateway® Technology. The accession numbers for the subunits are as follows:
(§2) The regulatory subunits of PI3Ks are cloned into pDEST8 as un-tagged protein using the Gateway system (Catalog#11804-010). The sequences are verified before recombinant protein expression using the Baculovirus Expression System with Gateway® Technology. The accession numbers for the subunits are as follows:
(§3) For expression of the p110 complexes, the p85 (MOI of 4) is co-infected with p110 alpha, beta, and delta respectively (1MOI) in SF9 cells and harvested at 60 hours post co-infection. P110 gamma was infected at 1 MOI and harvested at 60 hours post infection.
(§4) For purification, PI3Ks are purified by Ni-NTA Agarose (Qiagen #30250) followed by Mono Q 10/100 GL (Ge Healthcare #17-5167-01). VPS34 is purified by Glutathione Sepharose 4 Fast Flow (GE Healthcare #17-5132-03) followed by HiTrap Q (GE Healthcare #17-1153-01).
(§5) 0.5 uL compounds in DMSO are added to wells of a 384 well microtitre plate (Corning 3575). At room temperature: 10 ul PI3K reaction buffer (50 mM Hepes, 5 mM DTT, 150 mM NaCl, 10 mM beta-glycerophosphate, 10 mM MgCl2, 0.25 mM sodium cholate and 0.001% CHAPS, pH 7.00) containing ATP (25 uM, Promega) is added followed immediately by 10 ul PI3K reaction buffer containing di-C8 PI(4,5)P2 (3.5 uM, CellSignals) and PI3Kalpha (0.4875 nM, Millennium Protein Sciences Group) and the mixture is incubated with shaking at room temperature for 30 minutes. Then 5 ul PI3K stop mix (50 mM Hepes, 5 mM DTT, 150 mM NaCl, 0.01% Tween-20, 15 mM EDTA and 25 nM biotin-PI(3,4,5)P3 (Echelon) is added to quench the reaction followed immediately by addition of 5 ul HTRF detection mix (50 mM Hepes, 5 mM DTT, 150 mM NaCl, 0.01% Tween-20, 40 mM KF, 10 nM GST:GRP-1 PH domain (Millennium Protein Sciences Group), 15 nM Streptavidin-XL (CisBio) and 0.375 nM anti-GST Eu++ antibody (CisBio) at pH 7.00). The plates are then incubated for 1 hour at room temperature with shaking and then read on a BMG PheraStar Plus reader.
2) Human PI3K beta, delta and gamma isoforms are tested using the procedure described for PI3K alpha above but with the following changes: PI3K beta (5.25 nM), PI3K delta (0.75 nM) and PI3K gamma (5 nM). All isoforms supplied by Millennium Protein Science Group.

[2] = target: T2, PI3Kalpha (Homo sapiens, UniProt P42336); experiment: Human PI3Kα enzyme assay (HTRF); type: biochemical; details: for PI3Kalpha % inh: at 1.11 μM; for inhibition at 1.11 µM: read-out: PI3Kalpha % inh
T2 construct: His (N); host or cells: SF9 insect cells (baculovirus)
T2 sequence (P42336 whole entry): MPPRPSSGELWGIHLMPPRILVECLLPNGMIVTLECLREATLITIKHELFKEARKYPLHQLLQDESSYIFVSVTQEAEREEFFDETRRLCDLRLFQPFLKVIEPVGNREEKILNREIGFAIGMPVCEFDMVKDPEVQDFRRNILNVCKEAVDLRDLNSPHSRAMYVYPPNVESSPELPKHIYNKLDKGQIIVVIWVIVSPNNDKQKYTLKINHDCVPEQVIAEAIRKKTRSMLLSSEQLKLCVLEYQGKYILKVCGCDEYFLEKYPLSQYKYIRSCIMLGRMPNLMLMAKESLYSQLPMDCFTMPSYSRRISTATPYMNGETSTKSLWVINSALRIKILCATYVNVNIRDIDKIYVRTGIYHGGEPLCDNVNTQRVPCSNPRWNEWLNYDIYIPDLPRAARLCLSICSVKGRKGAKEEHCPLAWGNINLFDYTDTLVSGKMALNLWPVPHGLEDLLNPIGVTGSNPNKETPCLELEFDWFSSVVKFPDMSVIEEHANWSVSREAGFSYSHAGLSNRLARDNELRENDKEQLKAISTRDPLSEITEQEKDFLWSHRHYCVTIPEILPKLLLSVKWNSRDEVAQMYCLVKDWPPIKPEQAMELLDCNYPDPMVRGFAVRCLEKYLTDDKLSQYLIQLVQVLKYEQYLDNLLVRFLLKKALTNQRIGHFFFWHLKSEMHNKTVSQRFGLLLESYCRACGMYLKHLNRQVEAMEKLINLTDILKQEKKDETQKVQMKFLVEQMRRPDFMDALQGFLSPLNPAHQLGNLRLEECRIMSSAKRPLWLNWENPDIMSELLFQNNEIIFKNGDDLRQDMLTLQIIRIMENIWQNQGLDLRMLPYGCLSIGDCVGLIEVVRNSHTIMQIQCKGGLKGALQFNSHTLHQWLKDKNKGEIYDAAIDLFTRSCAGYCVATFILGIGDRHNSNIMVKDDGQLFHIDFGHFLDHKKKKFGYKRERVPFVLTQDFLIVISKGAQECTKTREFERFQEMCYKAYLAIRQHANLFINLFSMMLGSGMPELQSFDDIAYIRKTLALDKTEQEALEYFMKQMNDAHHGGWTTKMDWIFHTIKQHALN
T2 sequence (P27986 whole entry partner): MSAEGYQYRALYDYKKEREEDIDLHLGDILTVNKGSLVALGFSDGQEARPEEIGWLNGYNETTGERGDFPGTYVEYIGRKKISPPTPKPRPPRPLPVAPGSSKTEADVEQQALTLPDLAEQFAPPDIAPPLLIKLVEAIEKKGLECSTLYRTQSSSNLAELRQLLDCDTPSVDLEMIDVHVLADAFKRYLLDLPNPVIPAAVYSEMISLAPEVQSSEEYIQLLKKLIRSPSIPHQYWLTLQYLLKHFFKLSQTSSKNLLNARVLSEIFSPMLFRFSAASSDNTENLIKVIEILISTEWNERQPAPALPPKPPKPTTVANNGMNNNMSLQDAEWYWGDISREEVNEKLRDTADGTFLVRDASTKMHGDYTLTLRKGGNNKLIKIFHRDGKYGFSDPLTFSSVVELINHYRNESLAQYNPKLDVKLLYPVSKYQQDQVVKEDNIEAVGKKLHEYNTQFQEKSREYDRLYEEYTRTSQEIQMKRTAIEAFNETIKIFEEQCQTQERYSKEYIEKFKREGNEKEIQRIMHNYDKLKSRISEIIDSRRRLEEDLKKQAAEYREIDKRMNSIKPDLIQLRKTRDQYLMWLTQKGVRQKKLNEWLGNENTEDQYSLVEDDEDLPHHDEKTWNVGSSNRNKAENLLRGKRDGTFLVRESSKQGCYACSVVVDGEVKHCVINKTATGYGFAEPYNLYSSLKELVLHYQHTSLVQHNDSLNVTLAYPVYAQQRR
Source text: as §1, §2, §3, §4
1) Human PI3Kα enzyme assay method
as §5

T1 sequence (P42338 whole entry): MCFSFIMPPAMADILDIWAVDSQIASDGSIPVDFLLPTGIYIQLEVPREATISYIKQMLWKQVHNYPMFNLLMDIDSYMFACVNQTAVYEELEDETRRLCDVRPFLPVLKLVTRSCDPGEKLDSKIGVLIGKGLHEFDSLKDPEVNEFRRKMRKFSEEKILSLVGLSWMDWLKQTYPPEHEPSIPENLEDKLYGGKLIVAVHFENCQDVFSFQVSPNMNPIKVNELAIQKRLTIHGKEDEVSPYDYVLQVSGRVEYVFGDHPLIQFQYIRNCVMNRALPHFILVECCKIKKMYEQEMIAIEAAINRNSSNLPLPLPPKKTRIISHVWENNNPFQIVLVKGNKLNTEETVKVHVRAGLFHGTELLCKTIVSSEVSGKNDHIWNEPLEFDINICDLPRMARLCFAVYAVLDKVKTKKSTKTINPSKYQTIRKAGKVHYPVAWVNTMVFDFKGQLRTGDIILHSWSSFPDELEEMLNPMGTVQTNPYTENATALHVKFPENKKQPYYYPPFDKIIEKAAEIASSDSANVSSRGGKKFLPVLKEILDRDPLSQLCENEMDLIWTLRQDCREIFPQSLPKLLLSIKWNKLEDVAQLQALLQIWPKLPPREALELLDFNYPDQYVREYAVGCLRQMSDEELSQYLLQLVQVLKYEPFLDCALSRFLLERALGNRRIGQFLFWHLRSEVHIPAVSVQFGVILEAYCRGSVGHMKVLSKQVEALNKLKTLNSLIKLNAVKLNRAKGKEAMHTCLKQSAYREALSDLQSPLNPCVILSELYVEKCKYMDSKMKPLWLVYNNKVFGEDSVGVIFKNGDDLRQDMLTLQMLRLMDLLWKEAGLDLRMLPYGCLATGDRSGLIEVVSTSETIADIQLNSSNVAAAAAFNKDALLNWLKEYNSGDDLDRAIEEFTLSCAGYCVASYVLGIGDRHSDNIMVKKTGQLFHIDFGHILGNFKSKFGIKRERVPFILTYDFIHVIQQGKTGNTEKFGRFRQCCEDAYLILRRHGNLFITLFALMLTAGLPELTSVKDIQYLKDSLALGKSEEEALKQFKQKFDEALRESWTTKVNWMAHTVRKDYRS
T1 sequence (P27986 whole entry partner): as the sequence (P27986 whole entry partner) above

PI3Kbeta % inh [1] [%]	PI3Kalpha % inh [2] [%]	inhibition at 1.11 µM [1] [%]	inhibition at 1.11 µM [2] [%]	pIC50 ([1]; read-out: IC50 (inhibit PI3Kbeta))	SMILES
44.05	12.90				O=C1N[C@@H](CO)CC(c2ccc3ccccc3c2)c2nc(N3CCOCC3)sc21 (some centres unmarked) [Compound 120]
		84.3	13.7		C=CCC1(C(=O)O)NC(=O)c2sc(N3CCOCC3)cc2C1c1ccc(Cl)c(Cl)c1 (centres unmarked) [Compound 196, 5-allyl-4-(3,4-dichlorophenyl)-2-(morpholin-4-yl)-7-oxo-4,5,6,7-tetrahydrothieno[2,3-c]pyridine-5-carboxylic acid]
		72	16.7		O=C1N[C@@H](C(=O)O)[C@H](c2ccc(Cl)c(Cl)c2)c2cc(N3CCOCC3)sc21 (relative stereo) [Compound 142, rel-(4R,5R)-4-(3,4-dichlorophenyl)-2-(morpholin-4-yl)-7-oxo-4,5,6,7-tetrahydrothieno[2,3-c]pyridine-5-carboxylic acid]
		110	5.13		NC(=O)CN1CC(c2ccc(Cl)cc2)c2cc(N3CCOCC3)sc2C1=O (centres unmarked) [Compound 214, 2-(4-(4-chlorophenyl)-2-morpholino-7-oxo-4,5-dihydrothieno[2,3-c]pyridin-6(7H)-yl)acetamide]
		75.5	10.9		C=CCC1(C(=O)OC)NC(=O)c2sc(N3CCOCC3)cc2C1c1ccc(Cl)c(Cl)c1 (centres unmarked) [Compound 154, methyl 5-allyl-4-(3,4-dichlorophenyl)-2-(morpholin-4-yl)-7-oxo-4,5,6,7-tetrahydrothieno[2,3-c]pyridine-5-carboxylate]
		104	38.4		N#Cc1c(N2CCOCC2)sc2c1C(c1ccc(Cl)c(Cl)c1)NC2=O (centres unmarked) [Compound 187]
115.55	65.98				N#Cc1c(N2CCOCC2)sc2c1C(c1ccc(Cl)c(Cl)c1)CCNC2=O (centres unmarked) [Compound 199]
		80.8	16.1		O=C1NCC(c2ccc(Cl)cc2)c2c1sc(N1CCOCC1)c2C#Cc1ccccc1 (single isomer, unassigned) [Compound 137, 4-(4-chlorophenyl)-2-(morpholin-4-yl)-3-(phenylethynyl)-5,6-dihydrothieno[2,3-c]pyridin-7(4H)-one]
		115	54		CNC(=O)[C@@H]1NC(=O)c2sc(N3CCOCC3)cc2[C@H]1c1ccc(Cl)c(Cl)c1 [Compound 132]
		77.5	6.62		COC(=O)c1[nH]c(=O)c2sc(N3CCOCC3)cc2c1-c1ccc(Cl)c(Cl)c1 [Compound 184, methyl 4-(3,4-dichlorophenyl)-2-(morpholin-4-yl)-7-oxo-6,7-dihydrothieno[2,3-c]pyridine-5-carboxylate]
		69.5	8.59		O=C1NCC(c2ccc(Cl)cc2)c2c1sc(N1CCOCC1)c2Br (single isomer, unassigned) [Compound 181, 3-bromo-4-(4-chlorophenyl)-2-(morpholin-4-yl)-5,6-dihydrothieno[2,3-c]pyridin-7(4H)-one]
		58.5	29.6		COCCNC(=O)[C@@H]1NC(=O)c2sc(N3CCOCC3)cc2[C@H]1c1ccc(Cl)cc1 [Compound 177]
85.03	9.87				O=C1NCCC(c2ccc3ccccc3c2)c2nc(N3CCOCC3)sc21 (centres unmarked) [Compound 131]
		109	13.3		O=C1NCCC(c2ccc3ccncc3c2)c2nc(N3CCOCC3)sc21 (centres unmarked) [Compound 165]
		62.5	16.5		O=C1NCC=C(c2ccc3ccncc3c2)c2nc(N3CCOCC3)sc21 [Compound 195]
79.38			16.7		O=C1NCCC(c2ccc(Cl)cc2)c2cc(N3CCOCC3)sc21 (centres unmarked) [Compound 201, 4-(4-chlorophenyl)-2-(morpholin-4-yl)-4,5,6,7-tetrahydro-8H-thieno[2,3-c]azepin-8-one]
		31.9	8.7	< 6.00	O=C1OC2(CCC(=O)c3sc(-c4ccncc4)cc32)c2ccc(Cl)cc21 (centres unmarked) [Compound 14, 5-chloro-2′-pyridin-4-yl-5′,6′-dihydro-3H,7′H-spiro[2-benzofuran-1,4′-[1]benzothiophene]-3,7′-dione]
76.80	11.18				CNC(=O)[C@@H]1NC(=O)c2sc(-c3ccncc3)cc2[C@H]1c1ccc(Cl)cc1 [Compound 160]

PI3Kbeta % inh [1] [%]	PI3Kalpha % inh [2] [%]	inhibition at 1.11 µM [1] [%]	inhibition at 1.11 µM [2] [%]	pIC50 ([1]; read-out: IC50 (inhibit PI3Kbeta))	SMILES
		96.8	18.4		O=C1NCC(c2ccc(Cl)c(Cl)c2)c2cc(N3CCOCC3)sc21 (centres unmarked) [Compound 208]
62.33			20.5		O=C1NCC(c2ccc(Cl)cc2)c2cc(N3CCOCC3)sc21 (centres unmarked) [Compound 211]
		75.8	31.4		COC(=O)[C@@H]1NC(=O)c2sc(N3CCOCC3)cc2[C@H]1c1ccc(Cl)c(Cl)c1 (relative stereo) [Compound 127, methyl rel-(4R,5R)-4-(3,4-dichlorophenyl)-2-(morpholin-4-yl)-7-oxo-4,5,6,7-tetrahydrothieno[2,3-c]pyridine-5-carboxylate]
		58.5	41.8		CNC(=O)[C@@H]1NC(=O)c2sc(-c3ccncc3)cc2[C@H]1c1ccc(Cl)cc1 [Compound 206]
		107	21.6		Cc1cc(-c2nc3c(s2)C(=O)NCC3c2ccc3ccccc3c2)ccn1 (centres unmarked) [Compound 179]
104.98	40.77				CNC(=O)[C@@H]1NC(=O)c2sc(C3=CCOCC3)cc2[C@H]1c1ccc(Cl)cc1 [Compound 121]
		116	25.9		O=C1NCC(c2ccc3ccncc3c2)c2nc(N3CCOCC3)sc21 (centres unmarked) [Compound 189]
53.94	48.20				O=C1N[C@@H](C(=O)NCCCO)[C@H](c2ccc(Cl)cc2)c2cc(N3CCOCC3)sc21 [Compound 200]
		116	58.1		CN(C)CC#Cc1c(N2CCOCC2)sc2c1C(c1ccc(Cl)cc1)CNC2=O (centres unmarked) [Compound 130]
66.61	36.43				N#Cc1c(N2CCOCC2)sc2c1C(c1ccc(Cl)c(Cl)c1)CCNC2=O (centres unmarked) [Compound 116]
66.37	40.46				CCNC(=O)[C@@H]1NC(=O)c2sc(N3CCOCC3)cc2[C@H]1c1ccc(Cl)cc1 [Compound 203]
113.55	88.75				O=C1N[C@@H](CO)CC(c2ccc3ccccc3c2)c2nc(N3CCOCC3)sc21 (some centres unmarked) [Compound 202]
		99.3	5.63		O=C(O)CN1CC(c2ccc(Cl)cc2)c2cc(N3CCOCC3)sc2C1=O (centres unmarked) [Compound 213, 2-(4-(4-chlorophenyl)-2-morpholino-7-oxo-4,5-dihydrothieno[2,3-c]pyridin-6(7H)-yl)acetic acid]
		113	38.6		Cc1cc(C2CNC(=O)c3sc(N4CCOCC4)cc32)ccc1Cl (centres unmarked) [Compound 194]
		82.5	10		C=Cc1c(N2CCOCC2)sc2c1C(c1ccc(Cl)cc1)CNC2=O (single isomer, unassigned) [Compound 143, 4-(4-chlorophenyl)-2-(morpholin-4-yl)-3-vinyl-5,6-dihydrothieno[2,3-c]pyridin-7(4H)-one]
		40.2	4.71		O=C1NCC(c2ccc(Cl)cc2)c2c1sc(N1CCOCC1)c2CO (single isomer, unassigned) [Compound 178, 4-(4-chlorophenyl)-3-(hydroxymethyl)-2-(morpholin-4-yl)-5,6-dihydrothieno[2,3-c]pyridin-7(4H)-one]
		117	74.5		CNC(=O)c1[nH]c(=O)c2sc(N3CCOCC3)cc2c1-c1ccc(Cl)cc1 [Compound 168]
